Drawing on patent US11453674B2, “Heterocyclic compound, preparation method and use thereof in medicine” (SUZHOU SINOVENT PHARMACEUTICALS CO., LTD., priority 2019, dated 2022), this text covers IC50 for 3 compounds.

What is called pIC50 is the IC50 on a negative log10 scale, so that one unit is a factor of ten. Low readings indicate a large IC50, high ones a small IC50.

pIC50: −log10 of the molar value.

The target of one assay is T1, hURAT1 (Homo sapiens, UniProt Q96S37).
T1 construct: expressed in transfected cells
T1 sequence (Q96S37 1-553): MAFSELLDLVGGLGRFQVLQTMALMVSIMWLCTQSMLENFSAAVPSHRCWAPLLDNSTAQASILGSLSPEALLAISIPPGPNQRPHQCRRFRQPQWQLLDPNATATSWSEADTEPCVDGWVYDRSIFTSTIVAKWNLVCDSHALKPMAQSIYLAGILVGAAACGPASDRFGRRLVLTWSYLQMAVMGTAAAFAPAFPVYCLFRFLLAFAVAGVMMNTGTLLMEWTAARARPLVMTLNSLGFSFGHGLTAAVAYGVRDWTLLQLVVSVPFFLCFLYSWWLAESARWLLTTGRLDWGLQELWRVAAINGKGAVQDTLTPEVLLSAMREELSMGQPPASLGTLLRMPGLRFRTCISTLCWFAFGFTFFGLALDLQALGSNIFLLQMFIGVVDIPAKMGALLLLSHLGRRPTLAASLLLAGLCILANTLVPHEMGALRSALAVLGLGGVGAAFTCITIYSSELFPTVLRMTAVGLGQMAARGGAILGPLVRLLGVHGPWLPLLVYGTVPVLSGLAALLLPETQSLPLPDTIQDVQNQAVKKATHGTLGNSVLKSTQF
Briefly: Inhibition of 14C-uric acid uptake by hURAT1 in HEK293-transfected cells. Format: cell-based. To be noted: HEK-293T cells stably expressing hURAT1, 14C-uric acid uptake, 5 min at 37° C. As for the experimental part: 1. Cell Culture and Inoculation
2) When the cells covered 80% of the culture medium, the culture medium was removed. The cells were washed with PBS once, followed by digestion with pancreatin-EDTA. After detachment, the cells were added with a culture medium, exfoliated by pipetting, and centrifuged for harvesting. The harvested cells were added with a culture medium and mixed well to give a cell suspension.
3) The cell density was adjusted to 3×10^5 cells/mL, transferred into a white-wall, clear-bottom, 96-well cell culture plate with 100 μL/well, and incubated for 12-24 h.
1) A 20 mM stock solution of the compound was prepared with DMSO. Then the stock solution was diluted to a starting concentration of 2 mM with DMSO.
2) The solution was serially 4-fold diluted with DMSO from […] to the 10th concentration on a 96-well plate serving as the 100× plate, and respective quality controls were prepared.
3) The solutions in corresponding wells were 10-fold diluted with Cl-free HBSS buffer on another 96-well plate serving as the 10× plate.
4) Buffer containing 0.1 μCi/mL ^14C-uric acid, at 45 μL/well, and a 10× diluted compound, at 5 μL/well, were added to a third 96-well plate serving as the 1× plate for later use. The concentration of DMSO was 1%.
3. Uptake of ^14C-Uric Acid in Cells Stably Expressing hURAT1
1) The uptake assay was performed after the cultivated cells in 96-well plates adhered.
2) The cells were washed once with pre-heated buffer at 200 μL/well.
3) After the wells were dried, corresponding compounds (50 μL/well) and 0.1 μCi/mL ^14C-uric acid were immediately added.
4) The plate with the compound was incubated in a 37° C. incubator for 5 min.
5) 150 μL of ice-cold buffer was added to each well to terminate the uptake. Each well was washed three times with buffer. The cells were carefully washed to avoid detachment.
6) 50 μL of lysis buffer was added to each well, prior to shaking at 900 rpm on an oscillator for 5 min.
7) 150 μL of scintillation solution (Microint 40) was added to each well before shaking at 900 rpm for 5 min.
8) Finally, the microwell plate was transferred to a MicroBeta Trilux (PerkinElmer Co. Ltd.) for detection.
The data were analyzed and the IC50 of the quality controls and all test compounds on the plates were calculated using XL-fit software.

The test system of assay [1] is primary human hepatocytes. Briefly: Cytotoxicity assay on primary human hepatocytes (CellTiter-Glo, 48 h). Format: cell-based. To be noted: Hepatocyte, cell viability, 48 h incubation. The protocol:
Example 26: Cytotoxicity Assay of Compounds on Primary Human Hepatocytes
Primary human hepatocytes were purchased from Biorecamation IVT. Co., Ltd. (lot no.: AKB/S1391); the components of in vitro culture media of primary human cell and suppliers are as follows:
1. Frozen primary human hepatocytes were thawed, then resuspended in a culture medium containing 10% FBS. The cells were transferred into a 96-well plate, at 8×10^4 cells/well, followed by incubating overnight in an incubator at 5% CO2 at 37° C.;
2. […] The test compounds and control drug were added to wells, at 100 μL/well, to form test compound wells or reference wells, and the culture medium containing 10% FBS was added to wells, at 100 μL/well, as negative control. The cells were incubated in an incubator in the presence of 5% CO2 at 37° C. for 48 h.
3. The primary human hepatocytes were washed with PBS (0.1 M, pH=7.4) twice, and were added with CellTiter-Glo reagent at 100 μL/well. Cell-free wells added with CellTiter-Glo reagent at 100 μL/well served as the blank control. The 96-well plate was shaken on a shaker for 5 min, and then left at room temperature for 10 min.
4. The chemiluminescence values were detected using Victor X4 (Perkin Elmer). The chemiluminescence values of the test compound wells were denoted as F(test compound), the chemiluminescence values of the blank control wells were denoted as F(blank), and the chemiluminescence values of the negative control wells were denoted as F(negative control). The cell viabilities at different concentrations were calculated according to the following formula. Each concentration was measured in triplicate to give the average and the standard deviation.
5. The half maximal inhibitory concentration (IC50) of the test compounds to the primary human hepatocytes were calculated using Prism Graph software.
(In ATP-based viability assays light output follows the ATP content of the culture.)

`CCn1nc2ccc(F)cc2c1C(=O)c1cc(Br)c(O)c(Br)n1` [Example 8, (4,6-dibromo-5-hydroxypyridin-2-yl)(2-ethyl-5-fluoro-2H-indazol-3-yl)methanone] gave a pIC50 against hURAT1 of 6.70 to 7.30. The same measure, in the same setting: to `CCc1oc2ccncc2c1C(=O)c1cc(Br)c(O)c(Br)c1` [Example 1, (3,5-dibromo-4-hydroxyphenyl)(2-ethylfuro[3,2-c]pyridin-3-yl) methanone] belongs more than 7.30. In assay [1], `CCc1oc2ccccc2c1C(=O)c1cc(Br)c(O)c(Br)c1` [Benzbromarone, reference compound] gave a negative-log IC50 (pIC50) of 5.18.
